# Experimental data: patent US12703679B2, “Sulfone compounds and pharmaceutical compositions thereof, and their therapeutic applications” (Cura Therapeutics, LLC, priority 2019, dated 2026)
# Assays:
# [1] = test system: Aß40; test: Attenuating the amyloid β40 level in neurons differentiated from familial Alzheimer's disease patient iPSCs (ELISA); type: cell-based, human; settings: 10 μM test compound, FIG. 3
# Description: Induced pluripotent stem cells from a familial Alzheimer's disease patient carrying a duplication of the amyloid precursor protein gene were differentiated to neurons using standard protocols. Israel et al., Nature 2012, 482, 216-220. Neural precursor cells were plated on 24-well plates and differentiated to neurons over three weeks. There was an exponential increase in the levels of Aß secreted in these cells starting on Day 4 in culture. […]
# [2] = test system: Aß40 in CSF; test: Reduction of Aß40 in CSF of Sprague Dawley rats after single dose intravenous and oral administration; type: in vivo
# Description: This non-GLP study had two groups that received compound A1 by intravenous (IV) and oral (PO) administration with 3-6 male rats in each group. Rats received an IV dose of compound A1 at 1 mg/kg. Rats received a PO dose of compound A1 at 10 mg/kg. Plasma samples were collected pre-dose, 0.167 (10 min), 0.5, 1, 2, 4, 6, 8, 12, and 24 h post-dose. CSF samples were collected pre-dose, 0.5, 1, 2, 4, 8, 12, and 24 hours post-dose.
Structure (SMILES),"decrease of Aß40 relative to untreated cells (PBS) ([1]; daily treatment, by Day 6 of treatment, iPSC-derived neurons)","reduction of Aß40 relative to untreated cells (PBS) ([1]; within 24 h, iPSC-derived neurons (APP gene duplication))","reduction of Aß40 in CSF ([2]; single IV dose 1 mg/kg, rats, by 4 h post administration, FIG. 5)","time Aß40 levels in CSF remained lower than starting levels ([2]; single PO dose 10 mg/kg, male rats, FIG. 4)","decrease of Aß40 in CSF ([2]; single PO dose 10 mg/kg, male rats, by 2 h post administration, FIG. 4)"
"COc1cc(CS(=O)(=O)c2cccc(C(=O)O)c2)cc(OC)c1 [Compound A2, 3-((3,5-dimethoxybenzyl)sulfonyl)benzoic acid]",greater than 30%,20%,,,
"Cc1ccc(C(F)(F)F)cc1CS(=O)(=O)c1cccc(C(=O)O)c1 [Compound A1, 3-((2-methyl-5-(trifluoromethyl)benzyl)sulfonyl)benzoic acid]",,,20-60%,up to 24 h,up to 50%
